Results reported in US20070185094A1, “Novel 3-substitued-1,4-benzodiazepines” (ASTON UNIVERSITY, priority 2003, published 2007).
Where two headings read alike, the source gives them in different places.

Tests used:
CCKB receptor = biological target: T1, CCKB receptor (Cavia porcellus, UniProt H0VZC5); experiment: 125I-CCK-8 receptor binding assay, CCKB (guinea pig cerebral cortex)
T1 sequence (H0VZC5 1-426): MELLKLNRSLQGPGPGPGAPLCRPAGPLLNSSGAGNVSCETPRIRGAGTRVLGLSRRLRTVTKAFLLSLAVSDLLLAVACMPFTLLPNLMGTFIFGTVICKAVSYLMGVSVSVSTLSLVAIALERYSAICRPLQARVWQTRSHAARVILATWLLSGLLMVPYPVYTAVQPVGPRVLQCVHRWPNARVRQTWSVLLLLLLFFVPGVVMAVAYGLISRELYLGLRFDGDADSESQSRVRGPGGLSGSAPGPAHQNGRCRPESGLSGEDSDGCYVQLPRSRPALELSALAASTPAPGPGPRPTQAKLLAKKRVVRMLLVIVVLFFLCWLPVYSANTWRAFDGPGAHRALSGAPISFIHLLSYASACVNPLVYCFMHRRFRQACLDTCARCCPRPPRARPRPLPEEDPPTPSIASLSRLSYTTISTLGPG
Experimental: CCKA and CCKB receptor binding assays were performed, by using guinea pig cerebral cortex (CCKB) or rat pancreas (CCKA). […]. J. Pharmacol., 269, 249-254]. Pancreatic membranes were prepared in a similar way but by Charpentier et al [(1988), Cyclic cholecystokinin analogues with high selectivity for central receptors., Proc Natl Acad Sci USA, 85, 1968-1972]. The […] CCK binding assay: Tissues were homogenised in ice cold sucrose (0.32 M, 25 ml) for 15 strokes at 500 rpm and centrifuged at 13000 rpm for 10 mins. The supernatant was re-centrifuged at 13000 rpm for 20 mins. The resulting pellet was re-dispersed to the required volume of buffer at 500 rpm and stored in aliquots at […].
(§1) The samples were incubated {with membranes (0.1 mg/ml)} in 20 mM Hepes, 1 mM EGTA, 5 mM MgCl2, 150 mm NaCl, 0.25 mg/ml bacitracin at pH 6.5 for 2 hrs at RT and then […] by centrifugation at 1100 rpm for 5 minutes. The membrane pellets were washed twice with water and the bound radioactivity was measured in a Packard Cobra Auto-gamma counter (B5005). All binding assays were carried out with L-363, 260 as an internal non-specific standard. Controls (no compound) were also added. All samples were made in duplicate and repeated twice. All compounds were initially screened for percentage inhibition at 20 μM.

CCKA receptor = biological target: T2, CCKA receptor (Rattus norvegicus, UniProt P30551); experiment: 125I-CCK-8 receptor binding assay, CCKA (rat pancreas); settings: for Ratio CCKB:CCKA: ratio of IC50 values
T2 construct: Pancreatic membranes were prepared in a similar way; from tissue; host or cells: rat pancreas membranes
T2 sequence (P30551 1-444): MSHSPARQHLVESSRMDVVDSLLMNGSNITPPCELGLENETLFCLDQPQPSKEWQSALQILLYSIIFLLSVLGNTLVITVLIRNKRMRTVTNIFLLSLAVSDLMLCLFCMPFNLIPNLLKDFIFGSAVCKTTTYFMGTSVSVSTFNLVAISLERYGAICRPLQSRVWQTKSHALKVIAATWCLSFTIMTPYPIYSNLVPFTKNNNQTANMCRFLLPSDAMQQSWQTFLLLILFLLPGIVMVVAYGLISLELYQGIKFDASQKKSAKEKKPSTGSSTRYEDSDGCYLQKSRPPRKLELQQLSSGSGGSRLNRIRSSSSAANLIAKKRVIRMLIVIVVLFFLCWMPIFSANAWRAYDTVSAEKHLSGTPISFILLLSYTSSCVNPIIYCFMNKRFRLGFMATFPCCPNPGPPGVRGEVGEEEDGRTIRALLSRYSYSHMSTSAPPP
Experimental: CCKA and CCKB receptor binding assays were performed, by using guinea pig cerebral cortex (CCKB) or rat pancreas (CCKA). Male guinea pig brain tissues were prepared according to the modified method described by Saita et al [(1994), Characterization of YM022: its CCKB/gastrin receptor binding profile and antagonism to CCK-8-induced Ca2+ mobilization., Eur. J. Pharmacol., 269, 249-254]. Pancreatic membranes were prepared in a similar way but by Charpentier et al [(1988), Cyclic cholecystokinin analogues with high selectivity for central receptors., Proc Natl Acad Sci USA, 85, 1968-1972]. The […] CCK binding assay: Tissues were homogenised in ice cold sucrose (0.32 M, 25 ml) for 15 strokes at 500 rpm and centrifuged at 13000 rpm for 10 mins. The supernatant was re-centrifuged at 13000 rpm for 20 mins. The resulting pellet was re-dispersed to the required volume of buffer at 500 rpm and stored in aliquots at […].
as §1

[1] = IC50 CCKB, Table 4, alkylated oxazepam derivatives

CN(Cc1ccccc1)C1N=C(c2ccccc2)c2cc(Cl)ccc2NC1=O (stereo not drawn) [Example 25]
IC50 (CCKB receptor; IC50 CCKB, Table 2): 2900 nM

CCN(c1cccc(C)c1)C1N=C(c2ccccc2)c2cc(Cl)ccc2NC1=O (stereo not drawn) [Example 56]
IC50 (CCKB receptor; IC50 CCKB, Table 3): 650 nM | IC50 (CCKA receptor; Table 3): 330 nM | Ratio CCKB:CCKA (CCKA receptor; Table 3): 2

O=C1Nc2ccc(Cl)cc2C(c2ccccc2)=NC1Nc1ccccc1Cl (stereo not drawn) [Example 38]
IC50 (CCKB receptor; IC50 CCKB, Table 3): 9300 nM | IC50 (CCKA receptor; Table 3): > 20000 nM

O=C1Nc2ccc(Cl)cc2C(c2ccccc2)=NC1Nc1cccc(Cl)c1 (single isomer, unassigned) [Example 2]
IC50 (CCKB receptor; CCKB IC50, Table 1): 320 nM

COc1ccccc1NC1N=C(c2ccccc2)c2cc(Cl)ccc2NC1=O (stereo not drawn) [Example 41]
IC50 (CCKB receptor; IC50 CCKB, Table 3): 1500 nM | IC50 (CCKA receptor; Table 3): > 20000 nM

COc1cccc(NC2N=C(c3ccccc3)c3cc(Cl)ccc3NC2=O)c1 (stereo not drawn) [Example 42]
IC50 (CCKA receptor): 10 nM | Ratio CCKB:CCKA (CCKA receptor; Table 3): 450

O=C1C(O)N=C(c2ccccc2)c2cc(Cl)ccc2N1Cc1ccccc1 (stereo not drawn) [Example 59, 7-chloro-3-hydroxy-5-phenyl-1-benzyl-1,3-dihydro-2H-1,4-benzodiazepin-2-one]
IC50 (CCKB receptor; [1]): 760 nM

O=C1Nc2ccc(Cl)cc2C(c2ccccc2)=NC1N1CCCc2ccccc21 (stereo not drawn) [Example 17, 7-chloro-3-[3,4-dihydroquinolin-1(2H)-yl]-5-phenyl-1,3-dihydro-2H-1,4-benzodiazepin-2-one]
IC50 (CCKB receptor; IC50 CCKB, Table 2): 7200 nM

O=C1Nc2ccc(Cl)cc2C(c2ccccc2)=NC1Nc1cccc([N+](=O)[O-])c1 (stereo not drawn) [Example 36]
IC50 (CCKB receptor; IC50 CCKB, Table 3): 6000 nM | IC50 (CCKA receptor): 11 nM | Ratio CCKB:CCKA (CCKA receptor; Table 3): 545

O=C1Nc2ccc(Cl)cc2C(c2ccccc2)=NC1NC1CCCCC1 (stereo not drawn) [Example 30, 7-chloro-3-(cyclohexylamino)-5-phenyl-1,3-dihydro-2H-1,4-benzodiazepin-2-one]
IC50 (CCKB receptor; IC50 CCKB, Table 2): 10100 nM

CN(c1ccccc1)C1N=C(c2ccccc2)c2cc(Cl)ccc2NC1=O (stereo not drawn) [Example 54]
IC50 (CCKB receptor; IC50 CCKB, Table 3): 150 nM | IC50 (CCKA receptor): 14 nM | Ratio CCKB:CCKA (CCKA receptor; Table 3): 11

COc1ccc(NC2N=C(c3ccccc3)c3cc(Cl)ccc3NC2=O)cc1OC (stereo not drawn) [Example 20, 7-chloro-3-(3,4-dimethoxyanilino)-5-phenyl-1,3-dihydro-2H-1,4-benzodiazepin-2-one]
IC50 (CCKB receptor; IC50 CCKB, Table 2): 1200 nM

O=C1Nc2ccc(Cl)cc2C(c2ccccc2)=NC1Nc1ccccc1 (stereo not drawn) [Example 53]
IC50 (CCKB receptor; IC50 CCKB, Table 3): 4100 nM | IC50 (CCKA receptor; Table 3): 240 nM | Ratio CCKB:CCKA (CCKA receptor; Table 3): 17

CCCCc1ccc(NC2N=C(c3ccccc3)c3cc(Cl)ccc3NC2=O)cc1 (stereo not drawn) [Example 3]
IC50 (CCKB receptor; CCKB IC50, Table 1): 580 nM

Cc1cccc(NC2N=C(c3ccccc3)c3cc(Cl)ccc3NC2=O)c1C (stereo not drawn) [Example 49]
IC50 (CCKB receptor; IC50 CCKB, Table 3): 6000 nM | IC50 (CCKA receptor; Table 3): 18 nM | Ratio CCKB:CCKA (CCKA receptor; Table 3): 333 | CCKA binding activity in words (CCKA receptor; dimethylanilines with at least one meta group): equally active

COc1ccc(NC2N=C(c3ccccc3)c3cc(Cl)ccc3NC2=O)cc1 (stereo not drawn) [Example 43, 7-chloro-3-(4-methoxyanilino)-5-phenyl-1,3-dihydro-2H-1,4-benzodiazepin-2-one]
IC50 (CCKB receptor; IC50 CCKB, Table 3): > 10000 nM | IC50 (CCKA receptor; Table 3): ≥ 20000 nM

O=C(CN1C(=O)C(O)N=C(c2ccccc2)c2cc(Cl)ccc21)c1ccccc1 (stereo not drawn) [Example 62, 7-chloro-3-hydroxy-5-phenyl-1-phenacyl-1,3-dihydro-2H-1,4-benzodiazepin-2-one]
IC50 (CCKB receptor; [1]): 200 nM

CC(C)N(C1CCCCC1)C1N=C(c2ccccc2)c2cc(Cl)ccc2NC1=O (single isomer, unassigned) [Example 8]
IC50 (CCKB receptor; IC50 CCKB): 190 nM

COc1cc(NC2N=C(c3ccccc3)c3cc(Cl)ccc3NC2=O)cc(OC)c1C(C)=O (stereo not drawn) [Example 21, 3-(4-acetyl-3,5-dimethoxyanilino)-7-chloro-5-phenyl-1,3-dihydro-2H-1,4-benzodiazepin-2-one]
IC50 (CCKB receptor; Table 2, read-out: IC50 CCKB): 5300 nM

CC(=O)c1ccccc1NC1N=C(c2ccccc2)c2cc(Cl)ccc2NC1=O (stereo not drawn) [Example 18, 3-(2 acetylanilino)-7-chloro-5-phenyl-1,3-dihydro-2H-1,4-benzodiazepin-2-one]
IC50 (CCKB receptor; IC50 CCKB, Table 2): 8400 nM

C=CCN1C(=O)C(O)N=C(c2ccccc2)c2cc(Cl)ccc21 (stereo not drawn) [Example 60, 7-chloro-3-hydroxy-5-phenyl-1-allyl-1,3-dihydro-2H-1,4-benzodiazepin-2-one]
IC50 (CCKB receptor; [1]): 980 nM

CCCNC1N=C(c2ccccc2)c2cc(Cl)ccc2NC1=O (stereo not drawn) [Example 28, 3-(propylamino)-7-chloro-5-phenyl-1,3-dihydro-2H-1,4-benzodiazepin-2-one]
IC50 (CCKB receptor; IC50 CCKB, Table 2): 8900 nM

CCN(C1CCCCC1)C1N=C(c2ccccc2)c2cc(Cl)ccc2NC1=O (stereo not drawn) [Example 34, 7-chloro-3-(ethylcyclohexylamino)-5-phenyl-1,3-dihydro-2H-1,4-benzodiazepin-2-one]
IC50 (CCKB receptor; IC50 CCKB, Table 2): > 15000 nM

CCOC(=O)N1C(=O)C(O)N=C(c2ccccc2)c2cc(Cl)ccc21 (stereo not drawn) [Example 61, 7-chloro-3-hydroxy-5-phenyl-1-ethoxycarbonyl-1,3-dihydro-2H-1,4-benzodiazepin-2-one]
IC50 (CCKB receptor; [1]): 690 nM

CC(C)N(C1CCCCC1)C1N=C(c2ccccc2)c2cc(Cl)ccc2NC1=O (stereo not drawn) [Example 33, 7-chloro-3-(isopropylcyclohexylamino)-5-phenyl-1,3-dihydro-2H-1,4-benzodiazepin-2-one]
IC50 (CCKB receptor; IC50 CCKB, Table 2): > 15000 nM

Cc1c(NC2N=C(c3ccccc3)c3cc(Cl)ccc3NC2=O)c(=O)n(-c2ccccc2)n1C (stereo not drawn) [Example 13]
IC50 (CCKB receptor; Table 2, read-out: IC50 CCKB): 9300 nM

O=C1Nc2ccc(Cl)cc2C(c2ccccc2)=NC1N1CCCCC1 (stereo not drawn) [Example 32, 7-chloro-3-(piperidin-1-yl)-5-phenyl-1,3-dihydro-2H-1,4-benzodiazepin-2-one]
IC50 (CCKB receptor; IC50 CCKB, Table 2): > 15000 nM

Cc1ccc(NC2N=C(c3ccccc3)c3cc(Cl)ccc3NC2=O)cc1C (stereo not drawn) [Example 31, 7-chloro-3-(3,4-dimethylanilino)-5-phenyl-1,3-dihydro-2H-1,4-benzodiazepin-2-one]
IC50 (CCKB receptor; IC50 CCKB): 920 nM

Cc1ccc(NC2N=C(c3ccccc3)c3cc(Cl)ccc3NC2=O)cc1C (stereo not drawn) [Example 4]
IC50 (CCKB receptor; CCKB IC50, Table 1): 660 nM

CN(c1ccccc1)C1N=C(c2ccccc2)c2cc(Cl)ccc2NC1=O (stereo not drawn) [Example 24, 7-chloro-3-(methylanilino)-5-phenyl-1,3-dihydro-2H-1,4-benzodiazepin-2-one]
IC50 (CCKB receptor; IC50 CCKB): 150 nM

O=C1Nc2ccc(Cl)cc2C(c2ccccc2)=NC1Nc1ccccc1 (stereo not drawn) [Example 22, 3-anilino-7-chloro-5-phenyl-1,3-dihydro-2H-1,4-benzodiazepin-2-one]
IC50 (CCKB receptor; IC50 CCKB, Table 2): 4100 nM

CN(Cc1ccccc1)C1N=C(c2ccccc2)c2cc(Cl)ccc2NC1=O (single isomer, unassigned) [Example 6]
IC50 (CCKB receptor; CCKB IC50, Table 1): 860 nM

O=C1Nc2ccc(Cl)cc2C(c2ccccc2)=NC1NCc1ccccc1 (stereo not drawn) [Example 23, 3-(benzylamino)-7-chloro-5-phenyl-1,3-dihydro-2H-1,4-benzodiazepin-2-one]
IC50 (CCKB receptor; IC50 CCKB, Table 2): 6000 nM

O=C1Nc2ccc(Cl)cc2C(c2ccccc2)=NC1N1CCOCC1 (stereo not drawn) [Example 11]
IC50 (CCKB receptor; CCKB IC50, Table 1): 2700 nM

COc1cccc(NC2N=C(c3ccccc3)c3cc(Cl)ccc3NC2=O)c1 (stereo not drawn) [Example 19, 7-chloro-3-(3-methoxyanilino)-5-phenyl-1,3-dihydro-2H-1,4-benzodiazepin-2-one]
IC50 (CCKB receptor; IC50 CCKB, Table 2): 1500 nM

C#CCN1C(=O)C(O)N=C(c2ccccc2)c2cc(Cl)ccc21 (stereo not drawn) [Example 58, 7-chloro-3-hydroxy-5-phenyl-1-prop-2-ynyl-1,3-dihydro-2H-1,4-benzodiazepin-2-one]
IC50 (CCKB receptor; [1]): 960 nM
